According to patent US12320799B2, “Methods of measuring signaling pathway activity for selection of therapeutic agents” (Celcuity Inc., priority 2017, dated 2025):

Key:
Assay type in all cases: cell-based, human
HER2 signaling pathway = assay: CELx multiple pathway test, impedance biosensor cell adhesion, Pertuzumab; conditions: no activator listed
Source text: (§1) Biosensor and transducer: A 96-well impendence E-Plate (ACEA, San Diego, CA) was placed onto an xCELLigence RTCA MP Station impendence biosensor (ACEA, San Diego, CA). The biosensor measured simultaneously the impedance of every well. The change in impedance for a particular well is proportional to the number of cells and type of attachment the cells have with the impedance microplate. Changes in impedance indicate a response to perturbation of these small cell populations. Coatings: The 96-E-Plate were wells were coated with fibronectin and or collagen. Collagen is purchased from Advanced BioMatrix (Carlsbad, CA) and fibronectin from Sigma-Aldrich (St. Louis, MO). Tissue and cell samples: A total of 18 samples of human tumor cells from breast, lung, colon, ovarian, kidney, bladder cancer were studied. For each of these six different cancer types, tumor cell samples from three different patients were tested. Any biomarkers that are used to guide selection of targeted therapy are listed in Table 18 for each patient if they were present. Signaling Pathways activator agent and targeted therapeutic pairs: Eleven different signaling pathways were studied in each human tumor cell sample using […] signaling pathway activator agent and targeted therapeutic pairs. Each of the signaling pathway activator agent and targeted therapeutic pairs affect the same signaling pathway. Each of the signaling pathway activator agents is a well-characterized and specific agonist of its associated signaling pathway and each of the targeted therapeutic agents is a well-characterized and specific antagonist of the same associated signaling pathway. The signaling pathway activator agents and targeted therapeutics used to characterize the activity level of the associated signaling pathway are summarized in Table 16 below:
(§2) Other Reagents: Standard media antibiotics (e.g. penicillin, streptomycin) and other buffers were purchased and used as delivered from ATCC (Manassas, VA, USA) or Life Technologies (Grand Island, NY). Procedure: For each test of a patient cell sample with a pair of signaling pathway activator and targeted therapeutic agents, six wells were seeded with approximately 15,000 cells in 120 uL culture media. Twenty microliters of the targeted therapeutic agent were added to two wells of each patient's cells and 20 microliters of standard media were added to the other four wells for each patient 18 hours in advance of addition of the signaling pathway activator agent. Signaling pathway stimulation was initiated with the addition of 20 ul of the signaling pathway activator agent in the two wells that received a targeted therapeutic agent and in two additional wells for each patient's set of cells without the targeted therapeutic. The impedance recording of attachment and adhesion change was performed at 37° C., 5% C02. Data was recorded on a continuous basis throughout the test, where the data presented is from the initial baseline level of cell attachment compared to the subsequent effects following the targeted therapeutic agent and the signaling pathway activator agent additions on the 18 different patient samples. Results:
(§3) Table 17 presents the results, expressed as an output value, for each of the 167 tests performed using the methods described above. For each of the 18 patient samples, up to 11 different signaling pathways were tested. The output value represents the difference between the amount of cell adhesion change resulting from addition of the signaling pathway activator agent and the amount of cell adhesion change resulting from addition of the targeted therapeutic agent.

[1] = tested on: HER2/HER3 signaling pathway; assay: CELx multiple pathway test, impedance biosensor cell adhesion, NRG1/Pertuzumab pair; conditions: activator NRG1
Source text: as §1
as §2, with “samples.” for “samples. Results:”
as §3, with “For” for “Table 17 presents the results, expressed as an output value, for each of the 167 tests performed using the methods described above. For”

[2] = tested on: HER2/HER1 signaling pathway; assay: CELx multiple pathway test, impedance biosensor cell adhesion, EGF/Pertuzumab pair; conditions: activator EGF
Source text: as §1, §2, §3

[3] = tested on: HER1, HER3 and c-Met pathways; assay: CELx test of multiple pathways simultaneously (EGF, NRG1, HGF in combination), impedance biosensor
Source text: Biosensor and transducer: A 96-well impendence E-Plate (ACEA, San Diego, CA) was placed onto an xCELLigence RTCA MP Station impendence biosensor (ACEA, San Diego, CA). The biosensor measured simultaneously the impedance of every well. The change in impedance for a particular well is proportional to the number of cells and type of attachment the cells have with the impedance microplate. Changes in impedance indicate a response to perturbation of these small cell populations. Coatings: The 96-E-Plate were wells were coated with fibronectin and or collagen. Collagen is purchased from Advanced BioMatrix (Carlsbad, CA) and fibronectin from Sigma-Aldrich (St. Louis, MO). Tissue and cell samples: Six samples of human tumor cells from breast cancer were studied (C1815, C1596, C1838, C135, C42, C264). Any biomarkers that are used to guide selection of targeted therapy are listed in Table 22 for each patient if they were present. Signaling Pathways activator agent and targeted therapeutic pairs: In each human tumor cell sample, gross signaling activity of the HER1, HER3 and c-Met pathways initiated by three activator agents (EGF, NRG1, HGF) in combination was quantified. […] Each of the signaling pathway activator agents is a well-characterized and specific agonist of its associated signaling pathway. […] The fifth targeted therapeutic tested, taselisib, is an inhibitor that binds to PI3k, which downstream of the HER family and c-Met receptors. Other Reagents: Standard media, antibiotics (e.g. penicillin, streptomycin), and other buffers were purchased and used as delivered from ATCC (Manassas, VA, USA) or Life Technologies (Grand Island, NY). Procedure:
For each test of a patient cell sample with a signaling pathway activator(s) and targeted therapeutic agent(s), six or eight wells were seeded with approximately 15,000 cells in 120 uL culture media; six wells were seeded when only a single drug was evaluated and eight wells were seeded when two drugs were evaluated. When only a single drug was evaluated, 20 uL of the targeted therapeutic agent was added to two wells of each patient's cells and the final concentration of the therapeutic agent in the two wells with the single therapeutic agent was 500 nanomolar. When two therapeutic agents were evaluated, two wells of patient cells received 20 uL of the combined therapeutic agents at a concentration of 500 nanomolar each and an additional two wells of patient cells received 20 uL of the combined therapeutic agents at a concentration of 50 nanomolar each. Twenty microliters of standard media were added to the other four wells for each patient 18 hours in advance of addition of the signaling pathway activator agent(s). Signaling pathway stimulation was initiated with the addition of 20 ul of the signaling pathway activator agent(s) in the two or four wells that received a targeted therapeutic agent(s) and two additional wells for each patient's set of cells. The impedance recording of attachment and adhesion change was performed at 37° C., 5% CO2. Data was recorded on a continuous basis throughout the test, where the data presented if from the initial baseline level of cell attachment compared to the subsequent effects following the targeted therapeutic agent(s) and the signaling pathway activator agent(s) additions on the nine different patient samples.
For each of the six patient samples, three different signaling pathways (HER1, HER3, c-Met) were activated simultaneously. The output value represents the difference between the amount of cell adhesion change resulting from addition of the signaling pathway activator agent(s) and the amount of cell adhesion change resulting from addition of the targeted therapeutic agent(s).

ALK signaling pathway = assay: CELx multiple pathway test, impedance biosensor cell adhesion, FAM150A/Ceritinib pair; conditions: activator FAM150A
Source text: as §1
as §2, with “samples.” for “samples. Results:”
as §3, with “For” for “Table 17 presents the results, expressed as an output value, for each of the 167 tests performed using the methods described above. For”

Axl signaling pathway = assay: CELx multiple pathway test, impedance biosensor cell adhesion, Gas6/R428 (BGB324) pair; conditions: activator Gas6
Source text: as §1
as §2, with “samples.” for “samples. Results:”
as §3, with “For” for “Table 17 presents the results, expressed as an output value, for each of the 167 tests performed using the methods described above. For”

## Pertuzumab
HER2 signaling pathway; C2 breast tumor cells
  output value: 454
HER2 signaling pathway; C21 breast tumor cells
  output value: −9
HER2 signaling pathway; C23 lung tumor cells
  output value: −55
HER2 signaling pathway; C24 lung tumor cells
  output value: 66
HER2 signaling pathway; C25 lung tumor cells
  output value: 47
HER2 signaling pathway; C34 breast tumor cells
  output value: −90
HER2 signaling pathway; C54 ovarian tumor cells
  output value: 537
HER2 signaling pathway; C62 colorectal tumor cells
  output value: 24
HER2 signaling pathway; C69 ovarian tumor cells
  output value: −20
HER2 signaling pathway; C71 colorectal tumor cells
  output value: 165
HER2 signaling pathway; C72 colorectal tumor cells
  output value: 21
HER2 signaling pathway; C77 ovarian tumor cells
  output value: 361
HER2 signaling pathway; C81 bladder tumor cells
  output value: 5
HER2 signaling pathway; C82 bladder tumor cells
  output value: 6
HER2 signaling pathway; C87 bladder tumor cells
  output value: 523
HER2 signaling pathway; C88 kidney tumor cells
  output value: 16
HER2 signaling pathway; C90 kidney tumor cells
  output value: 32
HER2 signaling pathway; C92 kidney tumor cells
  output value: 23
[1]; C2 breast tumor cells
  output value: 426
[1]; C21 breast tumor cells
  output value: −48
[1]; C23 lung tumor cells
  output value: 61
[1]; C24 lung tumor cells
  output value: 13
[1]; C25 lung tumor cells
  output value: 9
[1]; C54 ovarian tumor cells
  output value: 356
[1]; C62 colorectal tumor cells
  output value: 24
[1]; C71 colorectal tumor cells
  output value: 175
[1]; C72 colorectal tumor cells
  output value: 21
[1]; C77 ovarian tumor cells
  output value: 294
[1]; C81 bladder tumor cells
  output value: 4
[1]; C82 bladder tumor cells
  output value: 5
[1]; C87 bladder tumor cells
  output value: 477
[1]; C88 kidney tumor cells
  output value: 46
[1]; C90 kidney tumor cells
  output value: −3
[1]; C92 kidney tumor cells
  output value: −20
[2]; C2 breast tumor cells
  output value: 28
[2]; C21 breast tumor cells
  output value: 40
[2]; C23 lung tumor cells
  output value: −6
[2]; C24 lung tumor cells
  output value: 54
[2]; C25 lung tumor cells
  output value: 38
[2]; C34 breast tumor cells
  output value: −176
[2]; C54 ovarian tumor cells
  output value: 180
[2]; C62 colorectal tumor cells
  output value: 0
[2]; C69 ovarian tumor cells
  output value: −115
[2]; C71 colorectal tumor cells
  output value: −10
[2]; C72 colorectal tumor cells
  output value: 0
[2]; C77 ovarian tumor cells
  output value: 67
[2]; C81 bladder tumor cells
  output value: 1
[2]; C82 bladder tumor cells
  output value: 1
[2]; C87 bladder tumor cells
  output value: 46
[2]; C88 kidney tumor cells
  output value: −24
[2]; C90 kidney tumor cells
  output value: 35
[2]; C92 kidney tumor cells
  output value: 3

## Cc1nc(-c2cn3c(n2)-c2ccc(-c4cnn(C(C)(C)C(N)=O)c4)cc2OCC3)n(C(C)C)n1 [taselisib]
[3]; breast cancer patient sample C42, agent(s) 500 nM each
  Output value (cell adhesion change, activator agents minus targeted therapeutic agent(s)): 246
[3]; breast cancer patient sample C135, agent(s) 500 nM each
  Output value (cell adhesion change, activator agents minus targeted therapeutic agent(s)): 583
[3]; breast cancer patient sample C264, agent(s) 500 nM each
  Output value (cell adhesion change, activator agents minus targeted therapeutic agent(s)): 276
[3]; breast cancer patient sample C1596, agent(s) 500 nM each
  Output value (cell adhesion change, activator agents minus targeted therapeutic agent(s)): 242
[3]; breast cancer patient sample C1815, agent(s) 500 nM each
  Output value (cell adhesion change, activator agents minus targeted therapeutic agent(s)): 385
[3]; breast cancer patient sample C1838, agent(s) 500 nM each
  Output value (cell adhesion change, activator agents minus targeted therapeutic agent(s)): 271

## Cc1cc(Nc2ncc(Cl)c(Nc3ccccc3S(=O)(=O)C(C)C)n2)c(OC(C)C)cc1C1CCNCC1 [Ceritinib]
ALK signaling pathway; C2 breast tumor cells
  output value: 5
ALK signaling pathway; C21 breast tumor cells
  output value: 10
ALK signaling pathway; C23 lung tumor cells
  output value: 16
ALK signaling pathway; C24 lung tumor cells
  output value: 2
ALK signaling pathway; C25 lung tumor cells
  output value: 8
ALK signaling pathway; C34 breast tumor cells
  output value: 15
ALK signaling pathway; C54 ovarian tumor cells
  output value: 14
ALK signaling pathway; C69 ovarian tumor cells
  output value: 16
ALK signaling pathway; C77 ovarian tumor cells
  output value: 37

## Nc1nc(Nc2ccc3c(c2)CC[C@@H](N2CCCC2)CC3)nn1-c1cc2c(nn1)-c1ccccc1CCC2 [R428 (BGB324)]
Axl signaling pathway; C2 breast tumor cells
  output value: 5
Axl signaling pathway; C21 breast tumor cells
  output value: 6
Axl signaling pathway; C23 lung tumor cells
  output value: 24
Axl signaling pathway; C24 lung tumor cells
  output value: 7
Axl signaling pathway; C25 lung tumor cells
  output value: 30
Axl signaling pathway; C34 breast tumor cells
  output value: 44
Axl signaling pathway; C54 ovarian tumor cells
  output value: 12
Axl signaling pathway; C69 ovarian tumor cells
  output value: 10
Axl signaling pathway; C77 ovarian tumor cells
  output value: 5
